Test results: US10196364B2, “Pyrimidine carboxamides as sodium channel blockers” (Purdue Pharma L.P., priority 2013, dated 2019)

Biological target: human Nav1.7 (Homo sapiens, UniProt Q15858)
Experiment: FLIPR sodium dye assay (CoroNa Green AM Na+ dye, primary fluorescence assay) in recombinant Nav1.7/HEK293 cells
Type: cell-based
Conditions: Table 6; CoroNa Green AM Na+ dye primary fluorescence assay; read-out: Nav1.7 Activity (μM) FLIPR assay IC50

human Nav1.7, sequence (Q15858 1-1977 isoform Q15858-3): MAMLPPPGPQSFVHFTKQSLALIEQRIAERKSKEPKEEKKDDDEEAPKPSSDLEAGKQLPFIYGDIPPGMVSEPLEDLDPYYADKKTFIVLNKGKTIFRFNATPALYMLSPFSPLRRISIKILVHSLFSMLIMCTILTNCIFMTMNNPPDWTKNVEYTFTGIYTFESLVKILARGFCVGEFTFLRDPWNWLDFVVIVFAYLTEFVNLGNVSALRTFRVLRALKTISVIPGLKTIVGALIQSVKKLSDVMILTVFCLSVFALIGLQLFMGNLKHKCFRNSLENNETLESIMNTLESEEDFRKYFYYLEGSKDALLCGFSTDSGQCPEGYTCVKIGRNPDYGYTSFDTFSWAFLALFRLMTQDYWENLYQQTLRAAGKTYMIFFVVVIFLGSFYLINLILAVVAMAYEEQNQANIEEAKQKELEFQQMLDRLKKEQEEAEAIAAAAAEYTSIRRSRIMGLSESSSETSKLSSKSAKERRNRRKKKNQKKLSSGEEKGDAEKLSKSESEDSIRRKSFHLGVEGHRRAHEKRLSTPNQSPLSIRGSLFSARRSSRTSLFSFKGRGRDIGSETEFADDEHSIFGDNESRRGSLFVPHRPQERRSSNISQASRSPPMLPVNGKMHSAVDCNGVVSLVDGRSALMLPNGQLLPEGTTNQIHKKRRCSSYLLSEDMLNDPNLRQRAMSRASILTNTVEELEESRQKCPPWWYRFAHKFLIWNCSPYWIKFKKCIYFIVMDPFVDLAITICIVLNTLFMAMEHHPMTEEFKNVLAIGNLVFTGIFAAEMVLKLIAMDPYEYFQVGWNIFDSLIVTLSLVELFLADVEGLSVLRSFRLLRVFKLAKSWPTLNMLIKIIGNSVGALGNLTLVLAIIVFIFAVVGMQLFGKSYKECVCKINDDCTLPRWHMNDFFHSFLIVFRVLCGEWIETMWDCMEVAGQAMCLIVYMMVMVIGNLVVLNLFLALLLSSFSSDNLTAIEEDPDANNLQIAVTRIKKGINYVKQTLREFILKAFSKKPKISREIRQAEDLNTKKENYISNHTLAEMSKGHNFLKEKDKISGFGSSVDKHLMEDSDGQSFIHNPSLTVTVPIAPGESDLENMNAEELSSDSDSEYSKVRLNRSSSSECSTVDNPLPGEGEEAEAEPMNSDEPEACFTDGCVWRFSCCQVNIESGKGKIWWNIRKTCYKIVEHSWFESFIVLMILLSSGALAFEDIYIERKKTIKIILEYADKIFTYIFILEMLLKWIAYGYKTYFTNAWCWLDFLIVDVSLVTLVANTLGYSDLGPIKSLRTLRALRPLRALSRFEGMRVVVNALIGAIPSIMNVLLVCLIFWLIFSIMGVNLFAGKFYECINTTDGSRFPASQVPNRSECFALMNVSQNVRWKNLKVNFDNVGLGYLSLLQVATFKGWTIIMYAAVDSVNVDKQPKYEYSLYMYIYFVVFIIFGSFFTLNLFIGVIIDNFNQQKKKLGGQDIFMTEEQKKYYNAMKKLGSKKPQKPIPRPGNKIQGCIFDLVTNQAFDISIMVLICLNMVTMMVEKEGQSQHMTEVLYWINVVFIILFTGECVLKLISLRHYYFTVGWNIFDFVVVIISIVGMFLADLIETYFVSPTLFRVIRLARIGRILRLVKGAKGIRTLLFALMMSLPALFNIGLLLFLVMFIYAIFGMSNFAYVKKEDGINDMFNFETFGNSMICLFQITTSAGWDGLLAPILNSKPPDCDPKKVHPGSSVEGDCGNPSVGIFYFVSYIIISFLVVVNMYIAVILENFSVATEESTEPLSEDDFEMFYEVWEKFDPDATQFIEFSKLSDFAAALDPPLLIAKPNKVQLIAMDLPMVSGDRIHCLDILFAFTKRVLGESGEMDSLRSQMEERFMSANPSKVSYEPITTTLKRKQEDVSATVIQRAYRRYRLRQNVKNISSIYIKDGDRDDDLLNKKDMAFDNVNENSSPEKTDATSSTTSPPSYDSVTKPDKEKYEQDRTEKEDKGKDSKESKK

| Structure (SMILES) | IC50 [µM] |
| --- | --- |
| NC(=O)c1cc(N[C@H]2CCNC2=O)nc(-c2ccc(Oc3ccc(C(F)(F)F)cc3)cc2CN2CCOCC2)n1 [Cpd No. 200, (S)-2-(2-(morpholinomethyl)-4-(4-(trifluoromethyl)phenoxy)-phenyl)-6-((2-oxopyrrolidin-3-yl)amino)pyrimidine-4-carboxamide] | 0.28 |
| NC(=O)c1cc(N[C@H]2CCNC2=O)nc(N2C3CCC2CC(Oc2ccc(C(F)(F)F)cc2-c2ccncc2)C3)n1 (stereo partly drawn) [compound 154, 6-(((S)-2-oxopyrrolidin-3-yl)amino)-2-(3-(2-(pyridin-4-yl)-4-(trifluoromethyl)phenoxy)-8-azabicyclo[3.2.1]octan-8-yl)pyrimidine-4-carboxamide] | 0.13 |
| N#Cc1cc(C(F)(F)F)ccc1O[C@H]1C[C@H]2CC[C@@H](C1)N2c1nc(N[C@H]2CCNC2=O)cc(C(N)=O)n1 [Cpd No. 204, 2-((1R,3S,5S)-3-(2-cyano-4-(trifluoromethyl)phenoxy)-8-azabicyclo-[3.2.1]octan-8-yl)-6-(((S)-2-oxopyrrolidin-3-yl)amino)pyrimidine-4-carboxamide] | > 20 |
| C[C@H](Oc1cc(C(N)=O)nc(-c2ccc(Oc3ccc(C(F)(F)F)cn3)cc2)n1)C(=O)NCCN1CCCC1 [compound 147, (S)-6-((1-oxo-1-((2-(pyrrolidin-1-yl)ethyl)amino)propan-2-yl)oxy)-2-(4-((5-(trifluoromethyl)pyridin-2-yl)oxy)phenyl)pyrimidine-4-carboxamide] | 0.54 |
| NC(=O)c1cc(N[C@H]2CCNC2=O)nc(-c2ccc(Oc3ccc(C(F)(F)F)cc3CN3CCOCC3)cc2)n1 [Cpd No. 192, (S)-2-(4-(2-(morpholinomethyl)-4-(trifluoromethyl)phenoxy)-phenyl)-6-((2-oxopyrrolidin-3-yl)amino)pyrimidine-4-carboxamide] | 1.34 |
| C[C@@H](Nc1cc(C(N)=O)nc(-c2ccc(Oc3ccc(C(C)(C)C)cc3)cc2)n1)C(N)=O [compound 110, (R)-6-((1-amino-1-oxopropan-2-yl)amino)-2-(4-(4-(tert-butyl)phenoxy)phenyl)pyrimidine-4-carboxamide] | 0.2 |
| Cc1cnc(Oc2ccc(-c3nc(N[C@@H](C)C(N)=O)cc(C(N)=O)n3)cc2)cn1 [Cpd No. 196, (S)-6-((1-amino-1-oxopropan-2-yl)amino)-2-(4-((5-methyl-pyrazin-2-yl)oxy)phenyl)-pyrimidine-4-carboxamide] | > 20 |
| NC(=O)c1cc(N[C@H]2CCNC2=O)nc(-c2ccc(Oc3ccc(F)cc3)c(CN3CCCCC3)c2)n1 [compound 143, (S)-2-(4-(4-fluorophenoxy)-3-(piperidin-1-ylmethyl)phenyl)-6-((2-oxopyrrolidin-3-yl)amino)pyrimidine-4-carboxamide] | 1.3 |
| NC(=O)c1cc(N[C@H]2CCNC2=O)nc(N2CC3CC2CN3Cc2ccc(OC(F)(F)F)cc2)n1 (stereo partly drawn) [compound 136, 6-(((S)-2-oxopyrrolidin-3-yl)amino)-2-(5-(4-(trifluoromethoxy)benzyl)-2,5-diazabicyclo[2.2.1]heptan-2-yl)pyrimidine-4-carboxamide] | > 20 |
| C[C@H](Nc1cc(C(N)=O)nc(N2C3CCC2CC(Oc2ccc(C(F)(F)F)cc2-c2ccncc2)C3)n1)C(N)=O (stereo partly drawn) [compound 155, 6-(((S)-1-amino-1-oxopropan-2-yl)amino)-2-(3-(2-(pyridin-4-yl)-4-(trifluoromethyl)phenoxy)-8-azabicyclo[3.2.1]octan-8-yl)pyrimidine-4-carboxamide] | 4.1 |
| NC(=O)c1cc(N[C@H]2CCNC2=O)nc(-c2ccc(Oc3ccc(C(F)(F)F)cc3CN3CCCC3)cc2)n1 [compound 169, (S)-6-((2-oxopyrrolidin-3-yl)amino)-2-(4-(2-(pyrrolidin-1-ylmethyl)-4-(trifluoromethyl)phenoxy)phenyl) pyrimidine-4-carboxamide] | 0.74 |
| NC(=O)c1cc(N[C@H]2CCNC2=O)nc(-c2ccc(Oc3ccc(C(F)(F)F)cc3C3=CCNCC3)cc2)n1 [Cpd No. 206, (S)-6-((2-oxopyrrolidin-3-yl)amino)-2-(4-(2-(1,2,3,6-tetrahydropyridin-4-yl)-4-(trifluoromethyl)phenoxy)phenyl)pyrimidine-4-carboxamide] | 5.28 |
| NC(=O)c1cc(NCc2ncc[nH]2)nc(-c2ccc(Oc3ccc(F)cc3)cc2)n1 [Cpd No. 179, 6-(((1H-imidazol-2-yl)methyl)amino)-2-(4-(4-fluorophenoxy)phenyl)-pyrimidine-4-carboxamide] | > 20 |
| NC(=O)c1cc(N[C@H]2CCNC2=O)nc(-c2ccc(Oc3ccc(F)cc3)cc2CN2CCOCC2)n1 [Cpd No. 187, (S)-2-(4-(4-fluorophenoxy)-2-(morpholinomethyl)phenyl)-6-((2-oxopyrrolidin-3-yl)amino)-pyrimidine-4-carboxamide] | 5.67 |
| O=C(O)c1cc(N[C@H]2CCNC2=O)nc(-c2ccc(Oc3ccc(C(F)(F)F)cn3)cc2)n1 [compound 157, (S)-6-((2-oxopyrrolidin-3-yl)amino)-2-(4-((5-(trifluoromethyl)pyridin-2-yl)oxy)phenyl)pyrimidine-4-carboxylic acid] | > 20 |
| NC(=O)c1cc(N[C@H]2CCNC2=O)nc(-c2ccc(Oc3ccc(COCC(F)(F)F)cn3)cc2)n1 [compound 145, (S)-6-((2-oxopyrrolidin-3-yl)amino)-2-(4-((5-((2,2,2-trifluoroethoxy)methyl)pyridin-2-yl)oxy)phenyl)pyrimidine-4-carboxamide] | 1.38 |

| Structure (SMILES) | IC50 [µM] |
| --- | --- |
| CN1CCN(c2cc(C(F)(F)F)ccc2Oc2ccc(-c3nc(N[C@H]4CCNC4=O)cc(C(N)=O)n3)cc2)CC1 [Cpd No. 211, (S)-2-(4-(2-(4-methylpiperazin-1-yl)-4-(trifluoromethyl)-phenoxy)phenyl)-6-((2-oxopyrrolidin-3-yl)amino)-pyrimidine-4-carboxamide] | 4.16 |
| NC(=O)c1cc(N[C@H]2CCNC2=O)nc(-c2ccc(Nc3ccc(F)cc3)c(N)c2)n1 [Cpd No. 212, (S)-2-(3-amino-4-((4-fluoro-phenyl)amino)phenyl)-6-((2-oxopyrrolidin-3-yl)amino)-pyrimidine-4-carboxamide] | 4.73 |
| NC(=O)c1cc(N[C@H]2CCNC2=O)nc(-c2ccc(Oc3ccc(F)cc3)cc2Cn2cncn2)n1 [compound 164, (S)-2-(2-((1H-1,2,4-triazol-1-yl)methyl)-4-(4-fluorophenoxy)phenyl)-6-((2-oxopyrrolidin-3-yl)amino)pyrimidine-4-carboxamide] | 1.45 |
| NC(=O)c1cc(N[C@H]2CCNC2=O)nc(N2C3CCC2CC(Oc2ccc(C(F)(F)F)cc2)C3)n1 (stereo partly drawn) [compound 135, 6-(((S)-2-oxopyrrolidin-3-yl)amino)-2-(3-(4-(trifluoromethyl)phenoxy)-8-azabicyclo[3.2.1]octan-8-yl)pyrimidine-4-carboxamide] | 1.62 |
| C[C@H](Oc1cc(C(N)=O)nc(-c2ccc(Oc3ccc(C(F)(F)F)cc3CN3CCCC3)cc2)n1)C(=O)O [Cpd No. 184, (S)-2-((6-carbamoyl-2-(4-(2-(pyrrolidin-1-ylmethyl)-4-(trifluoromethyl)phenoxy)-phenyl)pyrimidin-4-yl)oxy)propanoic acid] | 9.72 |
| O=C(NCCN1CCCC1)c1cc(N[C@H]2CCNC2=O)nc(-c2ccc(Oc3ccc(C(F)(F)F)cn3)cc2)n1 [compound 137, (S)-6-((2-oxopyrrolidin-3-yl)amino)-N-(2-(pyrrolidin-1-yl)ethyl)-2-(4-((5-(trifluoromethyl)pyridin-2-yl)oxy)phenyl)pyrimidine-4-carboxamide] | 4.17 |
| C[C@H](Nc1cc(C(N)=O)nc(-c2cc(F)c(OCc3ccccc3)cc2F)n1)C(N)=O [compound 105, (S)-6-((1-amino-1-oxopropan-2-yl)amino)-2-(4-(benzyloxy)-2,5-difluorophenyl)pyrimidine-4-carboxamide] | > 20 |
| NC(=O)c1cc(O[C@H]2CCNC2=O)nc(-c2ccc(Oc3ccc(F)cc3)cc2)n1 [compound 118, (S)-2-(4-(4-fluorophenoxy)phenyl)-6-((2-oxopyrrolidin-3-yl)oxy)pyrimidine-4-carboxamide] | 0.35 |
| NC(=O)c1cc(N[C@H]2CCNC2=O)nc(-c2ccc(C(O)c3ccc(C(F)(F)F)cn3)cc2)n1 (stereo partly shown) [Cpd No. 189] | > 20 |
| NC(=O)c1cc(N[C@H]2CCNC2=O)nc(-c2ccc(Oc3ccc(C(F)(F)F)cc3)cc2)n1 [compound 114, (S)-6-((2-oxopyrrolidin-3-yl)amino)-2-(4-(4-(trifluoromethyl)phenoxy)phenyl)pyrimidine-4-carboxamide] | 0.33 |
| NC(=O)c1cc(N[C@H]2CCNC2=O)nc(N2[C@@H]3CC[C@H]2C[C@@H](Oc2ccc(C(F)(F)F)cc2CN2CCCC2)C3)n1 [Cpd No. 191, 6-(((S)-2-oxopyrrolidin-3-yl)amino)-2-((1R,3S,5S)-3-(2-(pyrrolidin-1-ylmethyl)-4-(trifluoromethyl)phenoxy)-8-azabicyclo[3.2.1]octan-8-yl)pyrimidine-4-carboxamide] | 1.97 |
| NC(=O)c1cc(N[C@H]2CCNC2=O)nc(-c2ccc(Oc3cnc(OCC(F)(F)F)cn3)cc2)n1 [compound 151, (S)-6-((2-oxopyrrolidin-3-yl)amino)-2-(4-((5-(2,2,2-trifluoroethoxy)pyrazin-2-yl)oxy)phenyl)pyrimidine-4-carboxamide] | 0.35 |
| NC(=O)c1cc(N[C@H]2CCNC2=O)nc(Nc2ccc(Oc3ccc(C(F)(F)F)cn3)cc2)n1 [compound 172, (S)-6-((2-oxopyrrolidin-3-yl)amino)-2-((4-((5-(trifluoromethyl)pyridin-2-yl)oxy)phenyl)amino)pyrimidine-4-carboxamide] | 2.07 |
| NC(=O)c1cc(N[C@H]2CCNC2=O)nc(N2CC(Oc3ccc(C(F)(F)F)cn3)C2)n1 [compound 150, (S)-6-((2-oxopyrrolidin-3-yl)amino)-2-(3-((5-(trifluoromethyl)pyridin-2-yl)oxy)azetidin-1-yl)pyrimidine-4-carboxamide] | 0.95 |
| NC(=O)c1cc(N[C@H]2CCNC2=O)nc(-c2ccc(Oc3ccc(C(F)(F)F)cc3)c(N3CCCCC3)c2)n1 [Cpd No. 209, (S)-6-((2-oxopyrrolidin-3-yl)amino)-2-(3-(piperidin-1-yl)-4-(4-(trifluoromethyl)phenoxy)-phenyl)pyrimidine-4-carboxamide] | > 20 |
